From publication doi:10.1101/2020.02.18.954917v1 (biorxiv, 2020)

Columns and labels:
[1] = target: T1, Them1 StarD (Them1 START domain) (Homo sapiens, UniProt Q8WXI4); assay: microscale thermophoresis, RED-tris-NTA labelled His-tagged StarD; assay type: binding
T1 sequence (Q8WXI4 339-594 isoform Q8WXI4-2): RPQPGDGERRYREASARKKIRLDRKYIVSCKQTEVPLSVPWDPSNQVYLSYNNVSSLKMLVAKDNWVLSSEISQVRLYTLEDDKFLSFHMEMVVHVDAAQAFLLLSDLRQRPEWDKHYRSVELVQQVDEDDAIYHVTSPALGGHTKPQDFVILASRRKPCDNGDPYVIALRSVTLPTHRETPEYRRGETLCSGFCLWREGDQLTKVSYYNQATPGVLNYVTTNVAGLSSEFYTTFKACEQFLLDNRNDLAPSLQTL

[2] = target: T1, Them1 StarD (Them1 START domain); assay: differential scanning fluorimetry, SYPRO orange; assay type: binding; conditions: 10 μM protein, 50 μM ligand, 2% ethanol

Kd [1] [µM]	Tm decrease [2]	SMILES
70.8		CCCCCCCCCCCCCC(=O)O [myristic acid]
9.5		CCCCCCCCCCCCCCCCCC(=O)O [stearic acid]
45.9		CCCCCCCCCCCCCCCC(=O)O [palmitic acid]
	~ 5 °C	CCCCCCCC/C=C\CCCCCCCC(=O)OC[C@@H](O)COP(=O)([O-])OCC[N+](C)(C)C [18:1 LPC]
